Laboratory results as given in ChEMBL document CHEMBL1201862, “PubChem BioAssay data set” (2004).
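Dose response: 5 concentrations. Exposure: 48 h. Format: 96-well plates. Endpoint: linear interpolation; highest concentration if not reached. GI50 = concentration required for 50% inhibition of growth.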 The source made the active and inactive calls. Cut-off read from the data, not from the text of the source: active = GI50 up to about 1.1 µM and inactive = higher.

What was measured:
Test in all cases: NCI anticancer screen, dose series, 48 h
[1] = tested on: MDA-N
[2] = tested on: HCC 2998
[3] = tested on: HCT-116
[4] = tested on: HCT-15
[5] = tested on: T47D
[6] = tested on: NCI/ADR-RES
[7] = tested on: UO-31
[8] = tested on: NCI-H23
[9] = tested on: SF-295
[10] = tested on: HT-29
[11] = tested on: M14
[12] = tested on: DU-145
[13] = tested on: OVCAR-5
[14] = tested on: PC-3
[15] = tested on: SK-MEL-5
[16] = tested on: COLO 205
[17] = tested on: SK-OV-3
[18] = tested on: Malme-3M
[19] = tested on: KM12
[20] = tested on: NCI-H522
[21] = tested on: A498
[22] = tested on: SK-MEL-28
[23] = tested on: RPMI-8226
[24] = tested on: SR
[25] = tested on: UACC-62
[26] = tested on: SNB-75
[27] = tested on: OVCAR-8
[28] = tested on: MCF7
[29] = tested on: IGROV-1
[30] = tested on: BT-549
[31] = tested on: NCI-H460
[32] = tested on: NCI-H226
[33] = tested on: HL-60
[34] = tested on: MOLT-4
[35] = tested on: MDA-MB-231
[36] = tested on: K562
[37] = tested on: RXF 393
[38] = tested on: OVCAR-3
[39] = tested on: SNB-19
[40] = tested on: Hs-578T
[41] = tested on: CCRF-CEM
[42] = tested on: MDA-MB-435
[43] = tested on: CAKI-1
[44] = tested on: HOP-62
[45] = tested on: U-251
[46] = tested on: SK-MEL-2
[47] = tested on: SN12C
[48] = tested on: 786-0
[49] = tested on: SW-620
[50] = tested on: ACHN
[51] = tested on: SF-268
[52] = tested on: A549
[53] = tested on: EKVX
[54] = tested on: LOX IMVI
[55] = tested on: UACC-257
[56] = tested on: TK-10
[57] = tested on: OVCAR-4
[58] = tested on: HOP-92
[59] = tested on: SF-539

CN(C)C(=O)/N=C1\SC(=N\c2ccccc2)/C(=N/c2ccccc2)N1c1ccc([N+](=O)[O-])cc1
GI50 [1]: > 100 µM (inactive) | GI50 [2]: > 100 µM (inactive) | GI50 [3]: > 100 µM (inactive) | GI50 [4]: > 100 µM | GI50 [5]: > 100 µM (inactive) | GI50 [6]: > 100 µM (inactive) | GI50 [7]: > 100 µM (inactive) | GI50 [8]: > 100 µM (inactive) | GI50 [9]: > 100 µM (inactive) | GI50 [10]: 52.4 µM (inactive) | GI50 [11]: > 100 µM (inactive) | GI50 [12]: > 100 µM (inactive) | GI50 [13]: > 100 µM (inactive) | GI50 [14]: > 100 µM (inactive) | GI50 [15]: 49.8 µM (inactive) | GI50 [16]: > 100 µM (inactive) | GI50 [17]: > 100 µM (inactive) | GI50 [18]: > 100 µM (inactive) | GI50 [19]: > 100 µM (inactive) | GI50 [20]: > 100 µM (inactive) | GI50 [21]: > 100 µM (inactive) | GI50 [22]: > 100 µM (inactive) | GI50 [23]: > 100 µM (inactive) | GI50 [24]: > 100 µM (inactive) | GI50 [25]: 77.4 µM (inactive) | GI50 [26]: 41.6 µM (inactive) | GI50 [27]: > 100 µM (inactive) | GI50 [28]: 84.7 µM (inactive) | GI50 [29]: > 100 µM (inactive) | GI50 [30]: > 100 µM (inactive) | GI50 [31]: > 100 µM (inactive) | GI50 [32]: > 100 µM (inactive) | GI50 [33]: > 100 µM (inactive) | GI50 [34]: > 100 µM (inactive) | GI50 [35]: > 100 µM (inactive) | GI50 [36]: > 100 µM (inactive) | GI50 [37]: > 100 µM (inactive) | GI50 [38]: 71 µM (inactive) | GI50 [39]: > 100 µM (inactive) | GI50 [40]: 51.6 µM (inactive) | GI50 [41]: > 100 µM (inactive) | GI50 [42]: > 100 µM (inactive) | GI50 [43]: > 100 µM (inactive) | GI50 [44]: 61.9 µM (inactive) | GI50 [45]: > 100 µM (inactive) | GI50 [46]: > 100 µM (inactive) | GI50 [47]: > 100 µM (inactive)

COC(=O)C1=C([C@H]2COC(C)(C)O2)[C@H]2C[C@@H]1[C@@H]1OC(C)(C)O[C@@H]12
GI50 [1]: > 100 µM (inactive) | GI50 [2]: > 100 µM (inactive) | GI50 [3]: > 100 µM (inactive) | GI50 [4]: > 100 µM | GI50 [5]: > 100 µM (inactive) | GI50 [6]: > 100 µM (inactive) | GI50 [7]: > 100 µM (inactive) | GI50 [8]: > 100 µM (inactive) | GI50 [9]: > 100 µM (inactive) | GI50 [48]: > 100 µM (inactive) | GI50 [10]: > 100 µM (inactive) | GI50 [49]: > 100 µM (inactive) | GI50 [11]: > 100 µM (inactive) | GI50 [12]: > 100 µM (inactive) | GI50 [13]: > 100 µM (inactive) | GI50 [14]: > 100 µM (inactive) | GI50 [15]: > 100 µM (inactive) | GI50 [16]: > 100 µM (inactive) | GI50 [17]: > 100 µM (inactive) | GI50 [50]: > 100 µM (inactive) | GI50 [18]: > 100 µM (inactive) | GI50 [51]: > 100 µM (inactive) | GI50 [52]: > 100 µM (inactive) | GI50 [19]: > 100 µM (inactive) | GI50 [20]: > 100 µM (inactive) | GI50 [21]: > 100 µM (inactive) | GI50 [22]: > 100 µM (inactive) | GI50 [23]: > 100 µM (inactive) | GI50 [24]: > 100 µM (inactive) | GI50 [25]: > 100 µM (inactive) | GI50 [26]: > 100 µM (inactive) | GI50 [27]: > 100 µM (inactive) | GI50 [53]: > 100 µM (inactive) | GI50 [28]: > 100 µM (inactive) | GI50 [29]: > 100 µM (inactive) | GI50 [30]: > 100 µM (inactive) | GI50 [31]: > 100 µM (inactive) | GI50 [32]: > 100 µM (inactive) | GI50 [33]: > 100 µM (inactive) | GI50 [34]: > 100 µM (inactive) | GI50 [54]: > 100 µM (inactive) | GI50 [35]: > 100 µM (inactive) | GI50 [36]: > 100 µM (inactive) | GI50 [55]: > 100 µM (inactive) | GI50 [37]: > 100 µM (inactive) | GI50 [56]: > 100 µM (inactive) | GI50 [38]: > 100 µM (inactive) | GI50 [57]: > 100 µM (inactive) | GI50 [39]: > 100 µM (inactive) | GI50 [40]: > 100 µM (inactive) | GI50 [41]: > 100 µM (inactive) | GI50 [42]: > 100 µM (inactive) | GI50 [58]: 38.7 µM (inactive) | GI50 [44]: > 100 µM (inactive) | GI50 [45]: > 100 µM (inactive) | GI50 [59]: > 100 µM (inactive) | GI50 [46]: > 100 µM (inactive) | GI50 [47]: > 100 µM (inactive)

c1ccc2/c3[nH]/c(c2c1)=N\c1ccc(cc1)-c1nc2ccc(cc2o1)/N=c1/[nH]/c(c2ccccc12)=N/c1ccc2nc(oc2c1)-c1ccc(cc1)\N=3
GI50 [1]: 27.4 µM (inactive) | GI50 [2]: 17.1 µM (inactive) | GI50 [3]: 32.8 µM (inactive) | GI50 [4]: 3.1 µM | GI50 [5]: 25.2 µM (inactive) | GI50 [6]: 20.5 µM (inactive) | GI50 [7]: 15.9 µM (inactive) | GI50 [8]: 43.4 µM (inactive) | GI50 [9]: 31 µM (inactive) | GI50 [48]: 31 µM (inactive) | GI50 [10]: 33.4 µM (inactive) | GI50 [49]: 26.5 µM (inactive) | GI50 [11]: 53.8 µM (inactive) | GI50 [12]: 23.2 µM (inactive) | GI50 [13]: > 100 µM (inactive) | GI50 [14]: 29.9 µM (inactive) | GI50 [15]: 12.4 µM (inactive) | GI50 [16]: 11.6 µM (inactive) | GI50 [17]: 72.8 µM (inactive) | GI50 [50]: 16.6 µM (inactive) | GI50 [51]: 15.3 µM (inactive) | GI50 [52]: 26.8 µM (inactive) | GI50 [19]: 35.1 µM (inactive) | GI50 [20]: 43.8 µM (inactive) | GI50 [21]: 33.5 µM (inactive) | GI50 [22]: 24.5 µM (inactive) | GI50 [23]: 18.9 µM (inactive) | GI50 [24]: 20.3 µM (inactive) | GI50 [25]: 51.4 µM (inactive) | GI50 [26]: > 100 µM (inactive) | GI50 [27]: > 100 µM (inactive) | GI50 [53]: 45.6 µM (inactive) | GI50 [28]: 37.8 µM (inactive) | GI50 [29]: 47.2 µM (inactive) | GI50 [30]: > 100 µM (inactive) | GI50 [31]: 7.38 µM (inactive) | GI50 [32]: 68.2 µM (inactive) | GI50 [33]: 0.422 µM (active) | GI50 [34]: 14.9 µM (inactive) | GI50 [54]: 29.4 µM (inactive) | GI50 [35]: 27 µM (inactive) | GI50 [36]: 15.8 µM (inactive) | GI50 [55]: > 100 µM (inactive) | GI50 [37]: 43.2 µM (inactive) | GI50 [56]: > 100 µM (inactive) | GI50 [38]: 26.5 µM (inactive) | GI50 [39]: 26.1 µM (inactive) | GI50 [40]: > 100 µM (inactive) | GI50 [41]: 2.26 µM (inactive) | GI50 [42]: 27.6 µM (inactive) | GI50 [43]: 35.4 µM (inactive) | GI50 [58]: 37.3 µM (inactive) | GI50 [44]: 62.4 µM (inactive) | GI50 [45]: 20.1 µM (inactive) | GI50 [59]: 77.1 µM (inactive) | GI50 [46]: 38.8 µM (inactive) | GI50 [47]: 20.9 µM (inactive)
